Test systems include KM12 colon; OVCAR-8 ovarian; LOX IMVI melanoma; T-47D breast; SR leukemia; HCT-15 colon; OVCAR-4 ovarian; TK-10 renal; SF-539 CNS.
Common to all, as to assay: NCI-60 cell line screen, 48 h

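The compound was tested at five concentrations on cells cultured in 96-well plates, with a 48-hour exposure period. TGI: concentration producing complete growth inhibition.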

In the case of `COc1ccc(OC)c(C[P+](c2ccccc2)(c2ccccc2)c2ccccc2)c1`, the TGI in the assay with KM12 colon was 14.1 µM; with OVCAR-8 ovarian, greater than 65.3 µM; in the assay with LOX IMVI melanoma, 13.2 µM; with T-47D breast, greater than 90 µM; in the assay with SR leukemia it was 6.07 µM; in the assay on HCT-15 colon, greater than 100 µM. Moreover, the TGI in the assay on OVCAR-4 ovarian was greater than 48.8 µM; in the assay on TK-10 renal it was greater than 92.6 µM; in the assay with SF-539 CNS, 39.2 µM.

Consider `C=CC(OC(C)=O)c1ccc(OC(C)=O)cc1` (configuration not stated), for which the TGI in the assay with KM12 colon stood at 18.6 µM; in the assay on OVCAR-8 ovarian, 11.7 µM; in the assay on LOX IMVI melanoma, 9 µM; with T-47D breast it was 8.24 µM; with SR leukemia, 18.5 µM; in the assay with HCT-15 colon, 23.5 µM. For the same compound, the TGI with OVCAR-4 ovarian was determined as 37.5 µM; in the assay with TK-10 renal it was 4.99 µM; with SF-539 CNS it was 4.78 µM.

As for `Cn1c2ccc(C3=NCCN3)cc2c2cc(C3=NCCN3)ccc21`, the TGI in the assay with KM12 colon, with OVCAR-8 ovarian, in the assay with LOX IMVI melanoma, in the assay on T-47D breast, in the assay on SR leukemia and in the assay with HCT-15 colon was greater than 100 µM each time. Besides, the TGI in the assay on OVCAR-4 ovarian, with TK-10 renal and in the assay with SF-539 CNS was greater than 100 µM in each case.

For `COC(=O)[C@](C)(Cc1ccccc1)NC(=O)[C@@H](C)N1[C@@H](c2ccccc2)COC1(C)C`, the TGI in the assay on KM12 colon, in the assay on OVCAR-8 ovarian, with LOX IMVI melanoma, with T-47D breast, in the assay on SR leukemia and in the assay with HCT-15 colon was greater than 100 µM throughout. The TGI in the assay with OVCAR-4 ovarian, with TK-10 renal and in the assay on SF-539 CNS was greater than 100 µM throughout.

For the compound `Cc1nc2cccc(F)c2c(=O)n1-c1nnc(C(F)(F)F)s1`, the TGI with KM12 colon, with OVCAR-8 ovarian, with LOX IMVI melanoma, in the assay with T-47D breast, in the assay on SR leukemia and in the assay with HCT-15 colon was greater than 10 µM in each case. Besides, the TGI in the assay with OVCAR-4 ovarian, with TK-10 renal and with SF-539 CNS was greater than 10 µM throughout.

For `COc1cc2c(cc1OC)C(=O)/C(=C/c1ccc(O)cc1)CC2`, the TGI in the assay on KM12 colon, in the assay with OVCAR-8 ovarian, with LOX IMVI melanoma, in the assay with T-47D breast, in the assay with SR leukemia and in the assay with HCT-15 colon was greater than 10 µM throughout. For the same compound, the TGI in the assay with OVCAR-4 ovarian, with TK-10 renal and in the assay on SF-539 CNS was greater than 10 µM throughout.

Take `CC1=CC[C@](C)(O)[C@@]2(C)CC[C@H]3C(=C(C)C)C(=O)C[C@]3(C)C[C@H]12`: the TGI in the assay on KM12 colon was greater than 50 µM; in the assay with OVCAR-8 ovarian, greater than 50 µM; with LOX IMVI melanoma, 17 µM; in the assay with T-47D breast, greater than 50 µM; with SR leukemia, 40.6 µM; in the assay with HCT-15 colon it was 46.2 µM. Moreover, the TGI with OVCAR-4 ovarian, in the assay with TK-10 renal and with SF-539 CNS was greater than 50 µM each time.

For `COC(=O)c1cc(C)ccc1/C=C1\Cc2c(C)cc(C)cc2C1=O`, the TGI with KM12 colon, with OVCAR-8 ovarian, in the assay on LOX IMVI melanoma, in the assay on T-47D breast, with SR leukemia and in the assay with HCT-15 colon was greater than 100 µM throughout. In addition, the TGI in the assay with OVCAR-4 ovarian is greater than 100 µM; with TK-10 renal, 40 µM; in the assay on SF-539 CNS it was 42.3 µM.

Turning to `COC(=O)/C=C1\C(=O)C=C2[C@@H]3C[C@H]4C[C@H](CC[C@@]4(C)N21)C3(C)NC(C)=O` (some centres not stated), the TGI in the assay with KM12 colon is 33.2 µM; in the assay with OVCAR-8 ovarian, 51.2 µM; in the assay with LOX IMVI melanoma, greater than 100 µM; with T-47D breast it was greater than 27.8 µM; in the assay with SR leukemia, 99.7 µM; in the assay with HCT-15 colon it was greater than 52.7 µM. For the same compound, the TGI in the assay on OVCAR-4 ovarian came to 44 µM; in the assay with TK-10 renal it was 33.9 µM; in the assay on SF-539 CNS, 9.54 µM.

Turning to `CCN1CCCn2c(=O)[nH]c3cc(Br)cc1c32`, the TGI in the assay with KM12 colon, in the assay on OVCAR-8 ovarian, in the assay with LOX IMVI melanoma, with T-47D breast, in the assay on SR leukemia and in the assay on HCT-15 colon was greater than 100 µM in each case. Besides, the TGI in the assay with OVCAR-4 ovarian, in the assay with TK-10 renal and with SF-539 CNS was greater than 100 µM each time.

As to `COc1cccc(NC(=O)CC(=O)N2N=C(C)C(N=Nc3ccc(C(=O)O)cc3)C2=O)c1` (configuration not stated), the TGI in the assay on KM12 colon, with OVCAR-8 ovarian, with LOX IMVI melanoma, in the assay with T-47D breast, in the assay on SR leukemia and in the assay with HCT-15 colon was greater than 100 µM throughout. Moreover, the TGI with OVCAR-4 ovarian, in the assay with TK-10 renal and in the assay on SF-539 CNS was greater than 100 µM throughout.

On to `CC(=O)O[C@H]1CCC2[C@@H]3CCC4NC(=O)C(C#N)C[C@]4(C)C3CC[C@@]21C` (some centres not stated), for which the TGI with KM12 colon, in the assay on OVCAR-8 ovarian, with LOX IMVI melanoma, in the assay with T-47D breast, in the assay on SR leukemia and in the assay with HCT-15 colon was greater than 10 µM each time. The TGI with OVCAR-4 ovarian, in the assay on TK-10 renal and in the assay on SF-539 CNS was greater than 10 µM throughout.

As for `O=[N+]([O-])c1cc(F)ccc1Sc1ccccc1`, the TGI in the assay on KM12 colon, with OVCAR-8 ovarian, in the assay on LOX IMVI melanoma, in the assay on T-47D breast, in the assay on SR leukemia and with HCT-15 colon was greater than 10 µM each time. Besides, the TGI in the assay on OVCAR-4 ovarian, with TK-10 renal and in the assay on SF-539 CNS was greater than 10 µM each time.

In the case of `Cc1ccc(/C=N\NC(=O)c2ccncc2)s1`, the TGI with KM12 colon, with OVCAR-8 ovarian, with T-47D breast, with SR leukemia, in the assay on HCT-15 colon and in the assay with OVCAR-4 ovarian was greater than 100 µM in each case. In addition, the TGI in the assay with TK-10 renal and in the assay on SF-539 CNS was greater than 100 µM throughout.

`N#C/C(C(=O)Nc1ccccc1)=C(/N)N1CCCCC1`: the TGI in the assay on KM12 colon, in the assay with OVCAR-8 ovarian, with LOX IMVI melanoma, with T-47D breast, in the assay with SR leukemia and in the assay with HCT-15 colon was greater than 100 µM in each case. The compound further gave a TGI with SF-539 CNS greater than 100 µM.

The values above are taken from PubChem BioAssay (NCI).
